The record followed here is patent publication US7977304B2, “FK 228 derivates as HDAC inhibitors” (University of Southampton Highfield, priority 2005, dated 2011).

The test system of experiment [1] is TNFα production from peripheral blood mononuclear cells (PBMCs). Nature of the experiment: Activity Assay 7: LPS-induced TNFα secretion from PBMCs (QUANTIKINE immunoassay). It counts as cell-based. The settings on record: Homo sapiens, PBMC; Concentration 200 nM. On the procedure:
We analysed the ability of compounds to inhibit the production of TNFα from peripheral blood mononuclear cells (PBMCs). TNF-α immunoassays were carried out using the QUANTIKINE® Human TNF-α assay kit (R&D systems, Abingdon UK) according to the manufacturer's instructions. […] Compounds were added 1 hour later in volumes of 100 μl at 6× final concentration. Five hours later lipopolysaccharide (LSP, Sigma, Poole, UK) was added in a volume of 10 μl at 60× final concentration. Plates were mixed and left overnight at 37° C. 5% C02. Plates were centrifuged and cell supernatant was transferred to a new plate. The QUANTIKINE® assay reagents and standards were prepared according to the manufacturer instructions. The QUANTIKINE® assay plate was prepared by adding 50 μl of assay diluent RD1F into each well. This was followed by 200 μl of standard or 100 μl of calibrator diluent plus 100 μl cell supernatant; this was incubated for 2 hours at room temperature (RT). The plate was washed using wash buffer 4 times. After the final wash the plate was tapped on clean paper towel to remove all residual buffer. 200 μl of TNF-α conjugate was added to each well and incubated for 1 hour at RT. The plate was then washed as before. The required amount of substrate solution was prepared by adding equal volumes of colour reagents A and B, protecting from light, 200 μl of this mix was added to each well and incubated for 20 mins at RT, protected from light. 50 μl of stop solution was added to each well in the same order as the substrate solution and the plate was read on a Biorad 680 96 well plate reader (Bio-Rad, Hemel Hempstead, UK) at 450 nm with λ correction at 570 nm. TNF-α levels were determined for mean values of duplicate samples using absorbance in nm, calibration zero values were subtracted from all results to correct for the addition of calibrator diluent in the assay.

The subject of experiment [2] is MCF7 cells. Nature of the experiment: Activity Assay 3: cell cycle distribution and survival by propidium iodide flow cytometry. Format: cell-based. The conditions noted are these: MCF7, ~10×IC50 for growth inhibition, 24, 48 or 72 hours. As for the experimental part: Method; MCF7 cells were incubated with indicated concentrations of compounds, or left untreated as a control, for various times, as detailed in the figure legends. Cells were collected and the proportion of cells in different phases of the cell cycle determined using propidium iodide staining and flow cytometry as previously described (Purohit et al., Int J Ca 85, 584-9 2000). The proportion of cells with <G0/G1 content (pre G0) relative to total cells was calculated first. The proportion of cells in different cell cycle phases (G0/G1, S, G2/M) was calculated as a proportion of all cells in the cell cycle (i.e., total cells minus cells with <G0/G1 content).
MCF7 cells were incubated with the indicated concentrations of compounds (each equivalent to ˜10×IC50 values for growth inhibition), or DMSO as a solvent control, for 24, 48 or 72 hours. The proportion of cells in different phases of the cell cycle was determined by flow cytometry. Data shown are mean values ±SD, derived from two separate experiments, relative to untreated cells which are normalised to 1.
For orientation: A flow cytometer gives signals particle by particle.

Experiment [3] relates to LNCAP prostate cancer cells. The experiment can be described thus: Activity Assay 6: CyQuant cell growth inhibition, LNCAP. It counts as cell-based. The settings on record: Homo sapiens, 96 h, 4 days. On the procedure: (§1) We analysed the ability of compounds to inhibit the in vitro growth of human cancer cells. Cell proliferation assays were performed using the CyQuant™ assay system (Molecular Probes, Inc. USA) according to the manufacturer's instructions. MCF7 breast, A2780 ovarian and PC3 and LNCAP prostate cancer cells were plated in 96 well plates, at a density of 1000 cells for MCF7 cells or 5000 cells for M780/PC3/LNCAP cells, in 100 μl of cell culture medium per well. Compounds were added a minimum of 5 hours later, in serial dilutions in cell culture medium, in 100 μl volumes at 2× final concentration. Cell culture medium was removed after 4 (A2780, PC3 or LNCAP cells) or 6 days (MCF7 cells) by inversion of the plate onto blotting paper and cells were gently washed once with 200 μl PBS. Plates were frozen immediately for a minimum of one hour at −80° C. and then thawed. 200 μl of 1× CyQuant cell lysis buffer supplemented with dye, made according to the manufacturer's instruction, was added immediately to each well and incubated at room temperature for 3-5 minutes. Fluorescence was then measured for each well using a Cytofluor II Fluoresence Multiwell Plate Reader and CytoFluor II software with filters at 480 nm for excitation and 520 nm for emission maxima. Cell proliferation was determined for mean values of duplicate samples as percentages relative to untreated cell samples (=100%). Growth inhibition curves were used to derive IC50 values.

Experiment [4] concerns HUT78 T-cell leukaemia cells. Nature of the experiment: CyQuant cell proliferation assay, HUT78. It counts as cell-based, human. The settings on record: data not shown.
The subject of experiment [5] is acetylated histone H4 in primary chronic lymphocytic leukaemia cells. Nature of the experiment: Histone H4 acetylation in primary chronic lymphocytic leukaemia cells. The settings on record: data not shown. It counts as cell-based.
The subject of experiment [6] is inflammation in Balb/c mice. The experiment can be described thus: Activity Assay 8: oxazolone-induced ear inflammation in mice. The settings on record: 24 hours; for Change in ear weight: Mean ± SD, 8 animals per group. It counts as in vivo. On the procedure:
We analysed the ability of compound 9A (the compound of formula (2) on page 7) to inhibit inflammation in mice. Balb/c mice were sensitised by application of 5% (w/v) oxazolone to abdominal shaved skin. After 7 days mice were challenged by topical application of 3% (w/v) oxalazone to the left ear and acetone to the right ear. After 30 minutes test compounds dissolved in acetone were applied to the ears (dorsal and ventral surface).

The test system of experiment [7] is A2780 ovarian cancer cells. Nature of the experiment: Activity Assay 6: CyQuant cell growth inhibition, A2780. The settings on record: Homo sapiens, 96 h, A2780, 4 days. Format: cell-based. On the procedure:
as §1

The inhibition is the percentage by which the read-out fell short of the control. The IC50 is the concentration at which inhibition is half-maximal. Low readings indicate higher potency, high ones lower potency.

`CC(C)[C@H]1NC(=O)[C@H]2CSSCC/C=C/[C@H](CC(=O)N[C@H](C)C(=O)N2)OC(=O)CNC1=O` [Compound 9A, (E)-(1S,7R,10S,21R)-7-isopropyl-21-methyl-2-oxa-12,13-dithia-5,8,20,23-tetraaza-bicyclo[8.7.6]tricos-16-ene-3,6,9,19,22-pentaone]: testing at 0.2 µM in experiment [1] gave an inhibition of 69%. Besides, the “cell cycle distribution and survival” value in experiment [2] is “induce a predominant G2/M phase arrest and cell death”. For the same compound, the half-maximal inhibitory concentration (IC50) in experiment [3] stood at 0.252 µM; in experiment [7], 0.13 µM. In addition, the “growth of HUT78 T-cell leukaemia cells” value in experiment [4] is given as “inhibited the growth of these cells”. Also, the “levels of acetylated histone H4, primary chronic lymphocytic leukaemia cells” value in experiment [5] is “increased the levels of acetylated histone H4”. Besides, the “% inhibition compared to vehicle” value in experiment [6] (0.1% topical in acetone) stood at 33.3%; in experiment [6] (1% topical in acetone) it was 63.0%. In addition, the “Change in ear weight” value in experiment [6] (0.1% topical in acetone) came to 42.4 ± 4.3 mg; in experiment [6] (1% topical in acetone), 23.5 ± 3.2 mg.
